Test results published in PubChem BioAssay (NCI).
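Cells were grown in 96-well plates and exposed to each compound for 48 hours at five concentrations; endpoints were interpolated linearly between bracketing concentrations, or set to the highest concentration if not reached. TGI denotes the concentration required for complete inhibition of growth.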

Experiments:
Assay in all cases: NCI anticancer screen, dose series, 48 h
M14 melanoma = system: M14 melanoma
LXFL 529 NSCLC = system: LXFL 529 NSCLC
NCI-H226 lung = system: NCI-H226 lung
OVCAR-4 ovarian = system: OVCAR-4 ovarian
OVCAR-8 ovarian = system: OVCAR-8 ovarian
OVCAR-5 ovarian = system: OVCAR-5 ovarian
UACC-257 melanoma = system: UACC-257 melanoma
SK-OV-3 ovarian = system: SK-OV-3 ovarian
NCI-H522 lung = system: NCI-H522 lung
HL-60(TB) leukemia = system: HL-60(TB) leukemia
SW-620 colon = system: SW-620 colon
UO-31 renal = system: UO-31 renal
MOLT-4 leukemia = system: MOLT-4 leukemia
HCT-15 colon = system: HCT-15 colon
NCI-H23 lung = system: NCI-H23 lung
MALME-3M melanoma = system: MALME-3M melanoma
K-562 leukemia = system: K-562 leukemia
KM20L2 colon = system: KM20L2 colon
XF 498 CNS = system: XF 498 CNS
LOX IMVI melanoma = system: LOX IMVI melanoma
CAKI-1 renal = system: CAKI-1 renal
ACHN renal = system: ACHN renal
HOP-92 NSCLC = system: HOP-92 NSCLC
IGROV1 ovarian = system: IGROV1 ovarian
SK-MEL-5 melanoma = system: SK-MEL-5 melanoma
SR leukemia = system: SR leukemia
EKVX NSCLC = system: EKVX NSCLC
DLD-1 colon = system: DLD-1 colon
HOP-62 NSCLC = system: HOP-62 NSCLC
TK-10 renal = system: TK-10 renal
SF-268 CNS = system: SF-268 CNS
KM12 colon = system: KM12 colon
SN12C renal = system: SN12C renal
DMS 273 small cell lung = system: DMS 273 small cell lung
RXF 393 renal = system: RXF 393 renal
A549 NSCLC = system: A549 NSCLC
UACC-62 melanoma = system: UACC-62 melanoma
786-0 renal = system: 786-0 renal
RPMI-8226 leukemia = system: RPMI-8226 leukemia
SK-MEL-28 melanoma = system: SK-MEL-28 melanoma
NCI-H460 lung = system: NCI-H460 lung
HOP-18 NSCLC = system: HOP-18 NSCLC
HCC-2998 colon = system: HCC-2998 colon
HT29 colon = system: HT29 colon
M19-MEL melanoma = system: M19-MEL melanoma
SF-295 CNS = system: SF-295 CNS
COLO 205 colon = system: COLO 205 colon
SF-539 CNS = system: SF-539 CNS
SNB-75 CNS = system: SNB-75 CNS
SNB-19 CNS = system: SNB-19 CNS
OVCAR-3 ovarian = system: OVCAR-3 ovarian
U251 CNS = system: U251 CNS
HCT-116 colon = system: HCT-116 colon
DMS 114 small cell lung = system: DMS 114 small cell lung
A498 renal = system: A498 renal
SK-MEL-2 melanoma = system: SK-MEL-2 melanoma
CCRF-CEM leukemia = system: CCRF-CEM leukemia

SMILES: CN1CCN(CCSC2Cc3cc(Cl)ccc3Sc3ccccc32)CC1 (stereo unspecified)
- TGI (M14 melanoma): 3.66 µM
- TGI (LXFL 529 NSCLC): 7.34 µM
- TGI (NCI-H226 lung): 31.4 µM
- TGI (OVCAR-4 ovarian): 18.2 µM
- TGI (OVCAR-8 ovarian): 19.4 µM
- TGI (OVCAR-5 ovarian): 18.2 µM
- TGI (UACC-257 melanoma): 4.38 µM
- TGI (SK-OV-3 ovarian): 32.5 µM
- TGI (NCI-H522 lung): 12.8 µM
- TGI (HL-60(TB) leukemia): 5.46 µM
- TGI (SW-620 colon): 7.21 µM
- TGI (UO-31 renal): 21.6 µM
- TGI (MOLT-4 leukemia): 7.74 µM
- TGI (HCT-15 colon): 12.2 µM
- TGI (NCI-H23 lung): 23.6 µM
- TGI (MALME-3M melanoma): 5.8 µM
- TGI (K-562 leukemia): 4.9 µM
- TGI (KM20L2 colon): 4.08 µM
- TGI (XF 498 CNS): 9.57 µM
- TGI (LOX IMVI melanoma): 14.1 µM
- TGI (CAKI-1 renal): 17.2 µM
- TGI (ACHN renal): 19.8 µM
- TGI (HOP-92 NSCLC): 12.4 µM
- TGI (IGROV1 ovarian): 25.6 µM
- TGI (SK-MEL-5 melanoma): 7.88 µM
- TGI (SR leukemia): 19.9 µM
- TGI (EKVX NSCLC): 29.2 µM
- TGI (DLD-1 colon): 10.4 µM
- TGI (HOP-62 NSCLC): 26.7 µM
- TGI (TK-10 renal): 9.67 µM
- TGI (SF-268 CNS): 25.6 µM
- TGI (KM12 colon): 20.1 µM
- TGI (SN12C renal): 23.7 µM
- TGI (DMS 273 small cell lung): 4.28 µM
- TGI (RXF 393 renal): 15.3 µM
- TGI (A549 NSCLC): 13.2 µM
- TGI (UACC-62 melanoma): 3.63 µM
- TGI (786-0 renal): 9.11 µM
- TGI (RPMI-8226 leukemia): 5.34 µM
- TGI (SK-MEL-28 melanoma): 3.5 µM
- TGI (NCI-H460 lung): 16.1 µM
- TGI (HOP-18 NSCLC): 22.6 µM
- TGI (HCC-2998 colon): 15.3 µM
- TGI (HT29 colon): 3.45 µM
- TGI (M19-MEL melanoma): 4.16 µM
- TGI (SF-295 CNS): 15.6 µM
- TGI (COLO 205 colon): 3.26 µM
- TGI (SF-539 CNS): 11.7 µM
- TGI (SNB-75 CNS): 15.7 µM
- TGI (SNB-19 CNS): 33.9 µM
- TGI (OVCAR-3 ovarian): 16.5 µM
- TGI (U251 CNS): 19.1 µM
- TGI (HCT-116 colon): 15.3 µM
- TGI (DMS 114 small cell lung): 11.2 µM
- TGI (A498 renal): 24.7 µM
- TGI (SK-MEL-2 melanoma): 3.75 µM

SMILES: O=c1cc(-c2ccccc2)[nH]c2cc(Cl)cc(Cl)c12
- TGI (M14 melanoma): > 100 µM
- TGI (LXFL 529 NSCLC): > 100 µM
- TGI (NCI-H226 lung): > 100 µM
- TGI (OVCAR-4 ovarian): 68.6 µM
- TGI (OVCAR-8 ovarian): 83.5 µM
- TGI (OVCAR-5 ovarian): > 100 µM
- TGI (UACC-257 melanoma): > 100 µM
- TGI (SK-OV-3 ovarian): 59.4 µM
- TGI (NCI-H522 lung): > 100 µM
- TGI (CCRF-CEM leukemia): > 100 µM
- TGI (HL-60(TB) leukemia): > 100 µM
- TGI (SW-620 colon): > 100 µM
- TGI (UO-31 renal): > 100 µM
- TGI (MOLT-4 leukemia): > 100 µM
- TGI (HCT-15 colon): > 100 µM
- TGI (NCI-H23 lung): > 100 µM
- TGI (MALME-3M melanoma): > 100 µM
- TGI (K-562 leukemia): > 100 µM
- TGI (LOX IMVI melanoma): > 100 µM
- TGI (CAKI-1 renal): > 100 µM
- TGI (ACHN renal): > 100 µM
- TGI (HOP-92 NSCLC): 58.3 µM
- TGI (IGROV1 ovarian): > 100 µM
- TGI (SK-MEL-5 melanoma): > 100 µM
- TGI (SR leukemia): > 100 µM
- TGI (DLD-1 colon): > 100 µM
- TGI (HOP-62 NSCLC): > 100 µM
- TGI (TK-10 renal): > 100 µM
- TGI (SF-268 CNS): > 100 µM
- TGI (KM12 colon): > 100 µM
- TGI (SN12C renal): > 100 µM
- TGI (DMS 273 small cell lung): > 100 µM
- TGI (RXF 393 renal): 51.2 µM
- TGI (A549 NSCLC): > 100 µM
- TGI (UACC-62 melanoma): > 100 µM
- TGI (786-0 renal): 60 µM
- TGI (RPMI-8226 leukemia): > 100 µM
- TGI (SK-MEL-28 melanoma): > 100 µM
- TGI (NCI-H460 lung): > 100 µM
- TGI (HOP-18 NSCLC): > 100 µM
- TGI (HT29 colon): > 100 µM
- TGI (M19-MEL melanoma): > 100 µM
- TGI (SF-295 CNS): > 100 µM
- TGI (COLO 205 colon): > 100 µM
- TGI (SF-539 CNS): > 100 µM
- TGI (SNB-75 CNS): 30 µM
- TGI (U251 CNS): > 100 µM
- TGI (HCT-116 colon): > 100 µM
- TGI (DMS 114 small cell lung): > 100 µM
- TGI (SK-MEL-2 melanoma): > 100 µM
